Measurements: patent US8921360B2, “Heterobicycle-substituted azolyl benzene fungicides” (priority 2009, dated 2014)

Tests used:
Assay type in all cases: in vivo
[1] = test system: Erysiphe graminis f. sp. tritici; test: Test A: wheat powdery mildew, preventive spray on wheat seedlings; settings: wheat seedlings sprayed to run-off, inoculated next day, rated after 8 days, 100 = 100% disease control, 0 = no control; for Percentage Disease Control Test A: 200 ppm
From the text: General protocol for preparing test suspensions for Tests A-G: the test compounds were first dissolved in acetone in an amount equal to 11% of the final volume and then suspended at the desired concentration (in ppm) in acetone and purified water (50/50 mix by volume) containing 250 ppm of the surfactant Trem® 014 (polyhydric alcohol esters). The resulting test suspensions were then used in Tests A-G. Spraying a 200 ppm test suspension to the point of run-off on the test plants was the equivalent of a rate of 800 g/ha. The test suspension was sprayed to the point of run-off on wheat seedlings. The following day the seedlings were inoculated with a spore dust of Erysiphe graminis f. sp. tritici, (the causal agent of wheat powdery mildew) and incubated in a growth chamber at 20° C. for 8 days, after which time disease ratings were visually made. Results for Tests A-G are given in Table A. In the Table, a rating of 100 indicates 100% disease control and a rating of 0 indicates no disease control (relative to the controls). A dash (-) indicates no test results. All results are for 200 ppm except where followed by an “*”, which indicates 40 ppm.

[2] = test system: Puccinia recondita f sp. tritici; test: Test B: wheat leaf rust, preventive spray on wheat seedlings; settings: wheat seedlings sprayed to run-off, inoculated next day, rated after 24 h + 7 days; for Percentage Disease Control Test B: 200 ppm
From the text: General protocol for preparing test suspensions for Tests A-G: the test compounds were first dissolved in acetone in an amount equal to 11% of the final volume and then suspended at the desired concentration (in ppm) in acetone and purified water (50/50 mix by volume) containing 250 ppm of the surfactant Trem® 014 (polyhydric alcohol esters). The resulting test suspensions were then used in Tests A-G. Spraying a 200 ppm test suspension to the point of run-off on the test plants was the equivalent of a rate of 800 g/ha. The test suspension was sprayed to the point of run-off on wheat seedlings. The following day the seedlings were inoculated with a spore suspension of Puccinia recondita f sp. tritici (the causal agent of wheat leaf rust) and incubated in a saturated atmosphere at 20° C. for 24 h, and then moved to a growth chamber at 20° C. for 7 days, after which time disease ratings were visually made. Results for Tests A-G are given in Table A. In the Table, a rating of 100 indicates 100% disease control and a rating of 0 indicates no disease control (relative to the controls). A dash (-) indicates no test results. All results are for 200 ppm except where followed by an “*”, which indicates 40 ppm.

Septoria nodorum = test: Test D: wheat glume blotch, preventive spray on wheat seedlings; settings: wheat seedlings sprayed to run-off, inoculated next day, rated after 48 h + 7 days; for Percentage Disease Control Test D: 200 ppm
From the text: General protocol for preparing test suspensions for Tests A-G: the test compounds were first dissolved in acetone in an amount equal to 11% of the final volume and then suspended at the desired concentration (in ppm) in acetone and purified water (50/50 mix by volume) containing 250 ppm of the surfactant Trem® 014 (polyhydric alcohol esters). The resulting test suspensions were then used in Tests A-G. Spraying a 200 ppm test suspension to the point of run-off on the test plants was the equivalent of a rate of 800 g/ha. The test suspension was sprayed to the point of run-off on wheat seedlings. The following day the seedlings were inoculated with a spore suspension of Septoria nodorum (the causal agent of wheat glume blotch) and incubated in a saturated atmosphere at 20° C. for 48 h, and then moved to a growth chamber at 20° C. for 7 days, after which time disease ratings were visually made. Results for Tests A-G are given in Table A. In the Table, a rating of 100 indicates 100% disease control and a rating of 0 indicates no disease control (relative to the controls). A dash (-) indicates no test results. All results are for 200 ppm except where followed by an “*”, which indicates 40 ppm.

Septoria tritici = test: Test E: wheat leaf blotch, preventive spray on wheat seedlings; settings: 200 ppm, wheat seedlings sprayed to run-off, inoculated next day, rated after 48 h + 19 days
From the text: General protocol for preparing test suspensions for Tests A-G: the test compounds were first dissolved in acetone in an amount equal to 11% of the final volume and then suspended at the desired concentration (in ppm) in acetone and purified water (50/50 mix by volume) containing 250 ppm of the surfactant Trem® 014 (polyhydric alcohol esters). The resulting test suspensions were then used in Tests A-G. Spraying a 200 ppm test suspension to the point of run-off on the test plants was the equivalent of a rate of 800 g/ha. The test suspension was sprayed to the point of run-off on wheat seedlings. The following day the seedlings were inoculated with a spore suspension of Septoria tritici (the causal agent of wheat leaf blotch) and incubated in a saturated atmosphere at 24° C. for 48 h, and then moved to a growth chamber at 20° C. for 19 days, after which time disease ratings were visually made. Results for Tests A-G are given in Table A. In the Table, a rating of 100 indicates 100% disease control and a rating of 0 indicates no disease control (relative to the controls). A dash (-) indicates no test results. All results are for 200 ppm except where followed by an “*”, which indicates 40 ppm.

Botrytis cinerea = test: Test F: tomato botrytis, preventive spray on tomato seedlings; settings: tomato seedlings sprayed to run-off, inoculated next day, rated after 48 h + 3 days; for Percentage Disease Control Test F: 200 ppm
From the text: General protocol for preparing test suspensions for Tests A-G: the test compounds were first dissolved in acetone in an amount equal to 11% of the final volume and then suspended at the desired concentration (in ppm) in acetone and purified water (50/50 mix by volume) containing 250 ppm of the surfactant Trem® 014 (polyhydric alcohol esters). The resulting test suspensions were then used in Tests A-G. Spraying a 200 ppm test suspension to the point of run-off on the test plants was the equivalent of a rate of 800 g/ha. The test suspension was sprayed to the point of run-off on tomato seedlings. The following day the seedlings were inoculated with a spore suspension of Botrytis cinerea (the causal agent of tomato botrytis) and incubated in saturated atmosphere at 20° C. for 48 h, and then moved to a growth chamber at 27° C. for 3 additional days, after which time disease ratings were visually made. Results for Tests A-G are given in Table A. In the Table, a rating of 100 indicates 100% disease control and a rating of 0 indicates no disease control (relative to the controls). A dash (-) indicates no test results. All results are for 200 ppm except where followed by an “*”, which indicates 40 ppm.

Alternaria solani = test: Test G: tomato early blight, preventive spray on tomato seedlings; settings: tomato seedlings sprayed to run-off, inoculated next day, rated after 48 h + 5 days; for Percentage Disease Control Test G: 200 ppm
From the text: General protocol for preparing test suspensions for Tests A-G: the test compounds were first dissolved in acetone in an amount equal to 11% of the final volume and then suspended at the desired concentration (in ppm) in acetone and purified water (50/50 mix by volume) containing 250 ppm of the surfactant Trem® 014 (polyhydric alcohol esters). The resulting test suspensions were then used in Tests A-G. Spraying a 200 ppm test suspension to the point of run-off on the test plants was the equivalent of a rate of 800 g/ha. The test suspension was sprayed to the point of run-off on tomato seedlings. The following day the seedlings were inoculated with a spore suspension of Alternaria solani (the causal agent of tomato early blight) and incubated in a saturated atmosphere at 27° C. for 48 h, and then moved to a growth chamber at 24° C. for 5 days, after which time disease ratings were visually made. Results for Tests A-G are given in Table A. In the Table, a rating of 100 indicates 100% disease control and a rating of 0 indicates no disease control (relative to the controls). A dash (-) indicates no test results. All results are for 200 ppm except where followed by an “*”, which indicates 40 ppm.

[3] = test system: Puccinia recondita f. sp. tritici; test: Test C: wheat leaf rust, spray the day after inoculation of wheat seedlings; settings: 200 ppm; wheat seedlings inoculated, sprayed the following day, rated after 5 days;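 note: Curative spray on infected wheat seedlings with visual rating 5 days later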
From the text: General protocol for preparing test suspensions for Tests A-G: the test compounds were first dissolved in acetone in an amount equal to 11% of the final volume and then suspended at the desired concentration (in ppm) in acetone and purified water (50/50 mix by volume) containing 250 ppm of the surfactant Trem® 014 (polyhydric alcohol esters). The resulting test suspensions were then used in Tests A-G. Spraying a 200 ppm test suspension to the point of run-off on the test plants was the equivalent of a rate of 800 g/ha. Wheat seedlings were inoculated with a spore suspension of Puccinia recondita f. sp. tritici (the causal agent of wheat leaf rust) and incubated in a saturated atmosphere at 20° C. for 24 h. The following day, the test suspension was sprayed to the point of run-off on the wheat seedlings and then moved to a growth chamber at 20° C. for 5 days, after which time disease ratings were visually made. Results for Tests A-G are given in Table A. In the Table, a rating of 100 indicates 100% disease control and a rating of 0 indicates no disease control (relative to the controls). A dash (-) indicates no test results. All results are for 200 ppm except where followed by an “*”, which indicates 40 ppm.

## COC(=O)NCc1cc(-c2ccn(-c3ccc4c(c3)CCCO4)n2)ccc1Cl [Compound 1, methyl N-[[2-chloro-5-[1-(3,4-dihydro-2H-1-benzopyran-6-yl)-1H-pyrazol-3-yl]phenyl]methyl]carbamate]
[1]; Blumeria graminis, 192 h, read-out: Percentage Disease Control Test A
  pest or weed control at 200 ppm: 100%
[2]; Puccinia recondita, 192 h, read-out: Percentage Disease Control Test B
  pest or weed control at 200 ppm: 100%
Septoria nodorum; Parastagonospora nodorum, 216 h, read-out: Percentage Disease Control Test D
  pest or weed control at 200 ppm: 100%
Septoria tritici; Zymoseptoria tritici, 456 h, read-out: Percentage Disease Control Test E
  pest or weed control at 200 ppm: 92%
Botrytis cinerea; Botrytis cinerea, topical, 120 h, read-out: Percentage Disease Control Test F
  pest or weed control at 200 ppm: 0%
Alternaria solani; Alternaria solani, topical, 168 h, read-out: Percentage Disease Control Test G
  pest or weed control at 200 ppm: 100%

## COC(=O)NCc1cc(-n2ccc(-c3ccc4c(c3)OCCO4)n2)ccc1F [Compound 10]
[1]
  Percentage Disease Control Test A: 100%
[2]
  Percentage Disease Control Test B: 100%
[3]
  Percentage Disease Control Test C: 100%
Septoria nodorum
  Percentage Disease Control Test D: 100%
Septoria tritici
  Percentage Disease Control Test E: 98%
Botrytis cinerea
  Percentage Disease Control Test F: 94%
Alternaria solani
  Percentage Disease Control Test G: 84%

## COC(=O)NCc1cc(-c2ccn(-c3ccc4c(c3)N(C)C(=O)CO4)n2)ccc1F [Compound 13]
[1]
  Percentage Disease Control Test A: 90%
[2]
  Percentage Disease Control Test B: 100%
[3]
  Percentage Disease Control Test C: 28%
Septoria nodorum
  Percentage Disease Control Test D: 97%
Septoria tritici
  Percentage Disease Control Test E: 24%
Botrytis cinerea
  Percentage Disease Control Test F: 7%
Alternaria solani
  Percentage Disease Control Test G: 54%

## COC(=O)NCc1cc(-n2ccc(-c3ccc4c(c3)NC(=O)CO4)n2)ccc1F [Compound 14]
[1]
  Percentage Disease Control Test A: 0%
[2]
  Percentage Disease Control Test B: 54%
[3]
  Percentage Disease Control Test C: 0%
Septoria nodorum
  Percentage Disease Control Test D: 0%
Septoria tritici
  Percentage Disease Control Test E: 44%
Botrytis cinerea
  Percentage Disease Control Test F: 0%
Alternaria solani
  Percentage Disease Control Test G: 0%

## COC(=O)NCc1cc(-n2ccc(-c3ccc4c(c3)NCCO4)n2)ccc1F [Compound 15]
[1]
  Percentage Disease Control Test A: 0%
[2]
  Percentage Disease Control Test B: 100%
[3]
  Percentage Disease Control Test C: 38%
Septoria nodorum
  Percentage Disease Control Test D: 100%
Septoria tritici
  Percentage Disease Control Test E: 99%
Botrytis cinerea
  Percentage Disease Control Test F: 80%
Alternaria solani
  Percentage Disease Control Test G: 12%

## COC(=O)NCc1cc(-c2ccn(-c3ccc4c(c3)CCCO4)n2)ccc1Br [Compound 16]
[1]
  Percentage Disease Control Test A: 100%
[2]
  Percentage Disease Control Test B: 100%
[3]
  Percentage Disease Control Test C: 100%
Septoria nodorum
  Percentage Disease Control Test D: 100%
Septoria tritici
  Percentage Disease Control Test E: 100%
Botrytis cinerea
  Percentage Disease Control Test F: 99%
Alternaria solani
  Percentage Disease Control Test G: 85%

## COC(=O)NCc1cc(-c2ccn(-c3ccc4c(c3)OCCO4)n2)ccc1Br [Compound 17]
[1]
  Percentage Disease Control Test A: 100%
[2]
  Percentage Disease Control Test B: 100%
[3]
  Percentage Disease Control Test C: 100%
Septoria nodorum
  Percentage Disease Control Test D: 100%
Septoria tritici
  Percentage Disease Control Test E: 99%
Botrytis cinerea
  Percentage Disease Control Test F: 87%
Alternaria solani
  Percentage Disease Control Test G: 93%
